Measurements published in patent US8822468B2 (Novartis AG, priority 2008, dated 2014).

These molecules were tested against T1, cMET receptor tyrosine kinase (GST-cMET (969-1390)) (Homo sapiens, UniProt P08581) (assay: EPK cMET profiling assay (LanthaScreen TR-FRET antibody based kinase phosphorylation assay)). Conditions: purified recombinant GST-cMET (969-1390), 2 μM ATP, 50 nM Fluorescein-PolyEAY, 60 minutes at room temperature; read-out: c-Met IC50.
T1 construct: made in house
Format: biochemical
Method: A number of compounds of the present invention were assayed in an antibody based kinase phosphorylation assay as follows.
EPK cMET Profiling Assay:
The EPK kinase assay for cMET receptor tyrosine kinase was developed, using the purified recombinant GST-fusion protein, containing the cytoplasmic domain of the enzyme. GST-cMET (969-1390) was purified by affinity chromatography.
The kinase assay is based on the LanthaScreen™ technology. LanthaScreen™ is the detection of Time-Resolved Fluorescence Resonance Energy Transfer (TR-FRET) using lanthanide chelates to measure interactions between various binding partners. In a TR-FRET kinase assay, a long-lifetime lanthanide donor species is conjugated to an antibody that specifically binds to a phosphorylated product of a kinase reaction that is labeled with a suitable acceptor fluorophore. This antibody-mediated interaction brings the lanthanide donor and the acceptor into proximity such that resonance energy transfer can take place, resulting in a detectible increase in the FRET signal.
The kinase reactions were performed in 384 well microtiter plates in a total reaction volume of 9.05 μL. The assay plates were prepared with 0.05 μL per well of test compound in the appropriate test concentration, as described under “preparation of compound dilutions”. The reactions were started by combining 4.5 μL of ATP solution with 4.5 μL of enzyme-substrate mix (consisting of kinase and substrate). The final concentrations in the kinase reactions were 35 mM Tris/HCl, 1 mM DTT, 0.025% Tween20, 10 μM sodium orthovanadate, 0.25% BSA, 0.6% DMSO, 10 mM MgCl2, 3 mM MnCl2, 2 μM ATP, 50 nM Fluorescein-PolyEAY, and 0.3 nM enzyme.
The reactions were incubated for 60 minutes at room temperature and stopped by adding 4.5 μL of stop buffer (50 mM EDTA, 0.04% NP40, 20 mM Tris/HCl).
Subsequently 4.5 μL of detection mix (50 mM Tris/HCl, 2 mM DTT, 0.05% Tween20, 20 μM sodium orthovanadate, 1% BSA, 1.72 μg/ml Tb-PY20 antibody) were added to the stopped reactions. After 30 minutes incubation at room temperature, the plates were measured in a BMG Pherastar fluorescence reader. The effect of compound on the enzymatic activity was in all assays obtained from the linear progress curves and determined from one reading (end point measurement).
Test compounds were dissolved in DMSO (10 mM) and transferred into 1.4 mL flat bottom or V-shaped Matrix tubes carrying a unique 2D matrix. The stock solutions were stored at −20° C. if not used immediately. For the test procedure the vials were defrosted and identified by a scanner whereby a working sheet was generated that guided the subsequent working steps.
Compound dilutions were made in 96 well plates. This format enabled the assay of maximally 40 individual test compounds at 8 concentrations (single points) including 4 reference compounds. The dilution protocol included the production of “pre-dilution plates”, “master plates” and “assay plates”.
Pre-dilution plates: 96 polypropylene well plates were used as pre-dilution plates. A total of 4 pre-dilution plates were prepared including 10 test compounds each on the plate positions A1-A10, one standard compound at A11 and one DMSO control at A12. All dilution steps were done on a HamiltonSTAR robot.
Master plates: 100 μL of individual compound dilutions including standard compound and controls of the 4 “pre-dilution plates” were transferred into a 384 “master plate” including the following concentrations 1,820, […], 182, 54.6, 18.2, 5.46, 1.82 and 0.546 μM, respectively in 90% of DMSO.
Assay plates: Identical “assay plates” were then prepared by pipetting 50 nL each of compound dilutions of the “master plates” into 384-well “assay plates” by means of a HummingBird 384-channel dispenser. These plates were used directly for the assay which was performed in a total volume of 9.05 μL. This led to a final compound concentration of 10, 3.0, 1.0, 0.3, 0.1, 0.03, 0.01 and 0.003 μM and a final DMSO concentration of 0.5% in the assay.

T1 sequence (P08581 969-1390): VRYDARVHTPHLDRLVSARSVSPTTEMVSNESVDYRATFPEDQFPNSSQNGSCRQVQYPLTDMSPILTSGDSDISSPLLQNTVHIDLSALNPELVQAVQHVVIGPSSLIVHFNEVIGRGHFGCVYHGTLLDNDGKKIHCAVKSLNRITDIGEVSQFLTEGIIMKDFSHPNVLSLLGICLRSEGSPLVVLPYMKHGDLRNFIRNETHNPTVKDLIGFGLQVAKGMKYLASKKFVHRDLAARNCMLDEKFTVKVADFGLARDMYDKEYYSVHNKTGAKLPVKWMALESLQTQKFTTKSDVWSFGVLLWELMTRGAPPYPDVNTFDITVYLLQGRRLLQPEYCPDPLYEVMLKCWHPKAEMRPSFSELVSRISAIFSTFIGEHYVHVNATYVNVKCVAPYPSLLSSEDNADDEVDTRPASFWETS

SMILES | IC50 [µM]
CNC(=O)c1ccc(-c2ccc3ncc(Cc4ccc5ncccc5c4)n3n2)cc1Cl [Example 71, 2-Chloro-N-methyl-4-(3-quinolin-6-ylmethyl-imidazo[1,2-b]pyridazin-6-yl)-benzamide] | 0.024
CC(=O)Nc1cccc(-c2ccc3ncc(Cc4ccc5ncccc5c4)n3n2)c1 [Example 28, N-[3-(3-Quinolin-6-ylmethyl-imidazo[1,2-b]pyridazin-6-yl)-phenyl]-acetamide] | 0.24
c1ccc(CNc2ccc3ncc(Cc4ccc5ncccc5c4)n3n2)cc1 [Example 82, Benzyl-(3-quinolin-6-ylmethyl-imidazo[1,2-b]pyridazin-6-yl)-amine] | 0.22
O=C1CCN(c2ccc3ncc(Cc4ccc5ncccc5c4)n3n2)CCN1 [Example 109, 1-(3-Quinolin-6-ylmethyl-imidazo[1,2-b]pyridazin-6-yl)-[1,4]diazepan-5-one] | 0.062
N#Cc1cccc(-c2ccc3ncc(Cc4ccc5ncccc5c4)n3n2)c1 [Example 26, 3-(3-Quinolin-6-ylmethyl-imidazo[1,2-b]pyridazin-6-yl)-benzonitrile] | 0.02
Cn1cc(-c2ccc3ncc(Cc4ccc5ncc(C#N)n5c4)n3n2)cn1 [Example 302, 6-[6-(1-Methyl-1H-pyrazol-4-yl)-imidazo[1,2-b]pyridazin-3-ylmethyl]-imidazo[1,2-a]pyridine-3-carbonitrile] | 0.094
Cn1cc(-c2ccc3ncc(Cc4cc5cnn(C)c5cc4F)n3n2)cn1 [Example 277, 3-(6-Fluoro-1-methyl-1H-indazol-5-ylmethyl)-6-(1-methyl-1H-pyrazol-4-yl)-imidazo[1,2-b]pyridazine] | 0.061
CN(C)CCCNc1ccc2ncc(Cc3ccc4ncccc4c3)n2n1 [Example 101, N,N-Dimethyl-N′-(3-quinolin-6-ylmethyl-imidazo[1,2-b]pyridazin-6-yl)-propane-1,3-diamine] | 0.13
CNCCn1cc(-c2ccc3ncc(Cc4ccc5ncccc5c4)n3n2)cn1 [Example 237, Methyl-{2-[4-(3-quinolin-6-ylmethyl-imidazo[1,2-b]pyridazin-6-yl)-pyrazol-1-yl]-ethyl}-amine] | 0.17
Clc1cccc(Oc2ccc3ncc(Cc4ccc5ncccc5c4)n3n2)c1 [Example 113, 6-[6-(3-Chloro-phenoxy)-imidazo[1,2-b]pyridazin-3-ylmethyl]-quinoline] | 0.084
C[C@@H](c1ccc2ncccc2c1)c1cnc2ccc(-c3cnn(C)c3)nn12 [Example 159, 6-{(S)-1-[6-(1-Methyl-1H-pyrazol-4-yl)-imidazo[1,2-b]pyridazin-3-yl]-ethyl}-quinoline] | 0.014
c1cnc2ccc(Cc3cnc4ccc(Nc5ccc(CN6CCCCC6)cc5)nn34)cc2c1 [Example 126, (4-Piperidin-1-ylmethyl-phenyl)-(3-quinolin-6-ylmethyl-imidazo[1,2-b]pyridazin-6-yl)-amine] | 0.016
O=[N+]([O-])c1cccc(-c2ccc3ncc(Cc4ccc5ncccc5c4)n3n2)c1 [Example 22, 6-[6-(3-Nitro-phenyl)-imidazo[1,2-b]pyridazin-3-ylmethyl]-quinoline] | 0.0074
Cn1ncc2cc(Cc3cnc4ccc(-c5cnn(CCO)c5)nn34)c(F)cc21 [Example 281, 2-{4-[3-(6-Fluoro-1-methyl-1H-indazol-5-ylmethyl)-imidazo[1,2-b]pyridazin-6-yl]-pyrazol-1-yl}-ethanol] | 0.077
Clc1cccc(Nc2ccc3ncc(Cc4ccc5ncccc5c4)n3n2)c1 [Example 121, (3-Chloro-phenyl)-(3-quinolin-6-ylmethyl-imidazo[1,2-b]pyridazin-6-yl)-amine] | 0.02
Cn1cc(-c2ccc3ncc(C(O)c4cc5cccnc5cc4F)n3n2)cn1 (racemic) [Example 248, (rac)-7-Fluoro-quinolin-6-yl)-[6-(1-methyl-1H-pyrazol-4-yl)-imidazo[1,2-b]pyridazin-3-yl]-methanol] | 0.37
CC1CCCCN1c1ccc2ncc(Cc3ccc4ncccc4c3)n2n1 (centres unmarked) [Example 111, 6-[6-(2-Methyl-piperidin-1-yl)-imidazo[1,2-b]pyridazin-3-ylmethyl]-quinoline] | 0.34
